Measured values: patent US10646469B2, “Substituted indole derivatives as dengue viral replication inhibitors” (Janssen Pharmaceuticals, Inc., priority 2016, dated 2020)
pEC50: −log10 of the molar value.

Key:
[1] = Cytotoxicity in RT-qPCR assay (Cp of housekeeping gene β-actin); format: cell-based; conditions: African green monkey
Procedure: (§1) The antiviral activity of the compounds of the invention was tested against DENV-1 strain TC974 #666 (NCPV), DENV-2 strain 16681, DENV-3 strain H87 (NCPV) and DENV-4 strain H241 (NCPV) in a RT-qPCR assay. Therefore, Vero cells were infected with either DENV-1, or -2, or -3, or -4 in the presence or absence of test compounds. At day 3 post-infection, the cells were lysed and cell lysates were used to prepare cDNA of both a viral target (the 3′UTR of DENV; Table 2) and cellular reference gene (β-actin, Table 2). Subsequently, a duplex real time PCR was performed on a Lightcycler480 instrument. The generated Cp value is inversely proportional to the amount of RNA expression of these targets. Inhibition of DENV replication by a test compound results in a shift of Cp's for the 3′UTR gene. On the other hand, if a test compound is toxic to the cells, a similar effect on β-actin expression will be observed. The comparative ΔΔCp method is used to calculate EC50, which is based on the relative gene expression of the target gene (3′UTR) normalized with the cellular housekeeping gene (β-actin). In addition, CC50 values are determined based on the Cp values acquired for the housekeeping gene β-actin.
(§2) The culture medium consisted of minimal essential medium supplemented with 2% of heat-inactivated fetal calf serum, 0.04% gentamycin (50 mg/mL) and 2 mM of L-glutamine. Vero cells, obtained from ECACC, were suspended in culture medium and 75 μL/well was added in 96-well plates (10000 cells/well), which already contain the antiviral compounds. […] In addition, each plate contains wells which are assigned as virus controls (containing cells and virus in the absence of compound) and cell controls (containing cells in the absence of virus and compound). Once the cells were added in the plates, the plates were incubated in a fully humidified incubator (37° C., 5% CO2) until the next day. Dengue viruses serotype-1, 2, 3 and 4 were diluted in order to obtain a Cp of ˜22-24 in the assay. Therefore, 25 μL of virus suspension was added to all the wells containing test compound and to the wells assigned as virus control. In parallel, 25 μL of culture medium was added to the cell controls. Next, the plates were incubated for 3 days in a fully humidified incubator (37° C., 5% CO2). After 3 days, the supernatant was removed from the wells and the cells were washed twice with ice-cold PBS (˜100 μL). The cell pellets within the 96-well plates were stored at −80° C. for at least 1 day. Next, RNA was extracted using the Cells-to-CT™ lysis kit, according to the manufacturer's guideline (Life Technologies). The cell lysates can be stored at −80° C. or immediately used in the reverse transcription step.
(§3) Using the LightCycler software and an in-house LIMS system, dose response curves for each compound were calculated and the half maximal effective concentration (EC50) and the half maximal cytotoxic concentration (CC50) were determined (Tables 5-8).

[2] = system: DENV-2 strain 16681; test: Tetravalent RT-qPCR assay, serotype 2; format: cell-based; conditions: Dengue virus, DENV2, 72 h; RT-qPCR serotype 2 16681, Protocol A, Vero cells, day 3
Procedure: as §1, §2
(§4) In preparation of the reverse transcription step, mix A (table 3A) was prepared and 7.57 μL/well was dispensed in a 96-well plate. After addition of 5 μL of the cell lysates, a five minute denaturation step at 75° C. was performed (table 3B). Afterwards, 7.43 μL of mix B was added (table 3C) and the reverse transcription step was initiated (table 3D) to generate cDNA.
(§5) Finally, a RT-qPCR mix was prepared, mix C (table 4A), and 22.02 μL/well was dispensed in 96-well LightCycler qPCR plates to which 3 μL of cDNA was added and the qPCR was performed according to the conditions in table 4B on a LightCycler 480.
as §3

[3] = system: DENV-4 strain H241; test: Tetravalent RT-qPCR assay, serotype 4; format: cell-based; conditions: Dengue virus, DENV4, 72 h; RT-qPCR serotype 4 H241, Protocol A, Vero cells, day 3
Procedure: as §1, §2, §4, §5, §3

[4] = system: DENV-1 strain TC974 #666; test: Tetravalent RT-qPCR assay, serotype 1; format: cell-based; conditions: Dengue virus, DENV1, 72 h; RT-qPCR serotype 1 TC974#666, Protocol A, Vero cells, day 3
Procedure: as §1, §2, §4, §5, §3

[5] = Toxicity on the same plates (ATPlite cell viability); conditions: African green monkey, CC50, Vero cells, same plates as DENV-2 antiviral assay
[6] = system: DENV-2 16681 strain; test: DENV-2 antiviral assay (eGFP-labeled virus in Vero cells); format: cell-based, Dengue virus; conditions: DENV-2 16681 eGFP, MOI 0.5, 3 days
Procedure: The antiviral activity of all the compounds of the invention was tested against the DENV-2 16681 strain which was labeled with enhanced green fluorescent protein (eGPF). The culture medium consists of minimal essential medium supplemented with 2% of heat-inactivated fetal calf serum, 0.04% gentamycin (50 mg/mL) and 2 mM of L-glutamine. Vero cells, obtained from ECACC, were suspended in culture medium and 25 μL was added to 384-well plates (2500 cells/well), which already contain the antiviral compounds. Typically, these plates contain a 5-fold serial dilution of 9 dilution steps of the test compound at 200 times the final concentration in 100% DMSO (200 nL). […] Finally, each plate contains wells which are assigned as virus controls (containing cells and virus in the absence of compound), cell controls (containing cells in the absence of virus and compound) and medium controls (containing medium in the absence of cells, virus and compounds). To the wells assigned as medium control, 25 μL of culture medium was added instead of Vero cells. Once the cells were added to the plates, the plates were incubated for 30 minutes at room temperature to allow the cells to distribute evenly within the wells. Next, the plates were incubated in a fully humidified incubator (37° C., 5% CO2) until the next day. Then, DENV-2 strain 16681, labeled with eGFP, was added at a multiplicity of infection (MOI) of 0.5. Therefore, 15 μL of virus suspension was added to all the wells containing test compound and to the wells assigned as virus control. In parallel, 15 μL of culture medium was added to the medium and cell controls. Next, the plates were incubated for 3 days in a fully humidified incubator (37° C., 5% CO2). At the day of the read out, the eGFP fluorescence was measured using an automated fluorescence microscope at 488 nm (blue laser). Using an in-house LIMS system, inhibition dose response curves for each compound were calculated and the half maximal effective concentration (EC50) was determined. Therefore, the percent inhibition (I) for every test concentration is calculated using the following formula: I=100*([…])/(SVC−SCC); ST, SCC and SVC are the amount of eGFP signal in the test compound, cell control and virus control wells, respectively. The EC50 represents the concentration of a compound at which the virus replication is inhibited with 50%, as measured by a 50% reduction of the eGFP fluorescent intensity compared to the virus control. The EC50 is calculated using linear interpolation (Table 1).

[7] = system: DENV-3 strain H87; test: Tetravalent RT-qPCR assay, serotype 3; format: cell-based; conditions: Dengue virus, DENV3, 72 h; RT-qPCR serotype 3 H87, Protocol A, Vero cells, day 3
Procedure: as §1, §2, §4, §5, §3

[8] = system: Vero cells; test: Toxicity on the same plates (ATPlite cell viability); conditions: Vero cells, same plates as DENV-2 antiviral assay
[9] = RT-qPCR serotype 1 TC974#666, Protocol A
[10] = RT-qPCR serotype 2 16681, Protocol A
[11] = RT-qPCR serotype 3 H87, Protocol A
[12] = RT-qPCR serotype 4 H241, Protocol A

| Compound | CC50 at 3 days [1, 9] | CC50 at 3 days [1, 10] | CC50 at 3 days [1, 11] | CC50 at 3 days [1, 12] | pEC50 [2] | pEC50 [3] | pEC50 [4] | CC50 [5] | pEC50 [6] | pEC50 [7] | CC50 [8] |
| --- | --- | --- | --- | --- | --- | --- | --- | --- | --- | --- | --- |
| COc1cc(NC(C(=O)c2c[nH]c3cc(F)c(C(F)(F)F)cc23)c2ccc(Cl)cc2OC)cc(OCCO)c1 (single isomer, unassigned) [Compound 11A, 2-(4-chloro-2-methoxyphenyl)-1-(6-fluoro-5-(trifluoromethyl)-1H-indol-3-yl)-2-((3-(2-hydroxyethoxy)-5-methoxyphenyl)amino)ethanone] | > 2500 nM | > 2500 nM | > 2500 nM | 1900 nM | 9.62 | 7.41 | 9.16 | 2500 nM | 9.48 | 8.24 |  |
| COc1cc(NC(C(=O)c2c[nH]c3cc(OC)c(OC(F)(F)F)cc23)c2ccc(F)cc2OC)cc(OCCO)c1 (single isomer, unassigned) [Compound 6A, 2-(4-fluoro-2-methoxyphenyl)-2-((3-(2-hydroxyethoxy)-5-methoxyphenyl)amino)-1-(6-methoxy-5-(trifluoromethoxy)-1H-indol-3-yl)ethanone] | > 2100 nM | 3900 nM | > 2500 nM | 1500 nM | 9.26 | 7.11 | 8.59 |  | 9.48 | 7.92 | > 2500 nM |
| COc1cc(NC(C(=O)c2c[nH]c3c(C)cc(C(F)(F)F)cc23)c2ccc(Cl)cc2OC)cc(OCCO)c1 (single isomer, unassigned) [Compound 12A, 2-(4-chloro-2-methoxyphenyl)-2-((3-(2-hydroxyethoxy)-5-methoxyphenyl)amino)-1-(7-methyl-5-(trifluoromethyl)-1H-indol-3-yl)ethanone] | > 2500 nM | > 2500 nM | > 2500 nM | > 2400 nM | 9.66 | 7.52 | 9.40 |  | 9.80 | 8.41 | 2600 nM |
| COc1cc(NC(C(=O)c2c[nH]c3c(C)cc(OC(F)(F)F)cc23)c2ccc(Cl)cc2OC)cc(OCCO)c1 (single isomer, unassigned) [Compound 16A, 2-(4-chloro-2-methoxyphenyl)-2-((3-(2-hydroxyethoxy)-5-methoxyphenyl)amino)-1-(7-methyl-5-(trifluoromethoxy)-1H-indol-3-yl)ethanone] | > 2500 nM | > 2500 nM | > 2500 nM | > 2000 nM | 9.82 | 7.77 | 9.20 | 2400 nM | 10.01 | 8.77 |  |
| COc1cc(NC(C(=O)c2c[nH]c3ccc(OC(F)(F)F)cc23)c2ccc(F)cc2OC)cc(OCCO)c1 (single isomer, unassigned) [Compound 5B, 2-(4-fluoro-2-methoxyphenyl)-2-((3-(2-hydroxyethoxy)-5-methoxyphenyl)amino)-1-(5-(trifluoromethoxy)-1H-indol-3-yl)ethanone] | > 2500 nM | 3200 nM | > 2500 nM | 2400 nM | 9.44 | 7.30 | 9.11 |  | 9.52 | 8.22 | 3300 nM |
| COc1cc(NC(C(=O)c2c[nH]c3c(C)cc(C(F)(F)F)cc23)c2ccc(F)cc2OC)cc(OCCO)c1 (single isomer, unassigned) [Compound 4B, 2-(4-fluoro-2-methoxyphenyl)-2-((3-(2-hydroxyethoxy)-5-methoxyphenyl)amino)-1-(7-methyl-5-(trifluoromethyl)-1H-indol-3-yl)ethanone] | > 2500 nM | > 2400 nM | > 2500 nM | > 2100 nM | 9.44 | 7.29 | 8.85 |  | 9.34 | 8.04 | 2500 nM |
| COc1cc(NC(C(=O)c2c[nH]c3cc(OC)c(C(F)(F)F)cc23)c2ccc(F)cc2OC)cc(OCCO)c1 (single isomer, unassigned) [Compound 2A, 2-(4-fluoro-2-methoxyphenyl)-2-((3-(2-hydroxyethoxy)-5-methoxyphenyl)amino)-1-(6-methoxy-5-(trifluoromethyl)-1H-indol-3-yl)ethanone] | > 2500 nM | 3200 nM | > 1900 nM | > 2100 nM | 9.60 | 7.21 | 8.66 | 3500 nM | 9.35 | 7.72 |  |
| COc1cc(NC(C(=O)c2c[nH]c3c(C)cc(OC(F)(F)F)cc23)c2ccc(F)cc2OC)cc(OCCO)c1 (single isomer, unassigned) [Compound 8A, 2-(4-fluoro-2-methoxyphenyl)-2-((3-(2-hydroxyethoxy)-5-methoxyphenyl)amino)-1-(7-methyl-5-(trifluoromethoxy)-1H-indol-3-yl)ethanone] | 2100 nM | 3700 nM | > 2400 nM | 2600 nM | 9.51 | 7.32 | 9.15 |  | 9.46 | 8.24 | 2900 nM |
